Assay results from PubChem BioAssay AID1963428 (Molecular Pharmacology Branch, DTP, NCI, 2024).
Each block holds one molecule with its values, some of them ahead of it.

Tested on: 171881-019-R-J1-PDC complex spheroid growth, % test/control
Assay: Anticancer human tumor 171881-019-R-J1-PDC patient-derived invasive breast carcinoma cell line growth inhibition [Asc]
Settings: for IC50: curve of first compound; for viability, T/C: stronger effect = lower value
Outline: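 Tumor cells were grown as complex spheroids with human endothelial cells (HUVEC) and human mesenchymal stem cells as stroma. Agents were tested alone and in combination, in half-log steps down from the clinical Cmax, or from 10 microM where Cmax was unknown.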

[1] = second compound 0.01 µM, first compound 0.00949 µM
[2] = second compound 0.01 µM, first compound 0.03 µM
[3] = second compound 0.01 µM, first compound 0.0949 µM
[4] = second compound 0.01 µM, first compound 0.3 µM
[5] = second compound 0.01 µM, first compound 0.949 µM
[6] = second compound 0.01 µM, first compound 3 µM
[7] = second compound 0.0316 µM, first compound 0.00949 µM
[8] = second compound 0.0316 µM, first compound 0.03 µM
[9] = second compound 0.0316 µM, first compound 0.0949 µM
[10] = second compound 0.0316 µM, first compound 0.3 µM
[11] = second compound 0.0316 µM, first compound 0.949 µM
[12] = second compound 0.0316 µM, first compound 3 µM
[13] = second compound 0.1 µM, first compound 0.00949 µM
[14] = second compound 0.1 µM, first compound 0.03 µM
[15] = second compound 0.1 µM, first compound 0.0949 µM
[16] = second compound 0.1 µM, first compound 0.3 µM
[17] = second compound 0.1 µM, first compound 0.949 µM
[18] = second compound 0.1 µM, first compound 3 µM
[19] = second compound 0.316 µM, first compound 0.00949 µM
[20] = second compound 0.316 µM, first compound 0.03 µM
[21] = second compound 0.316 µM, first compound 0.0949 µM
[22] = second compound 0.316 µM, first compound 0.3 µM
[23] = second compound 0.316 µM, first compound 0.949 µM
[24] = second compound 0.316 µM, first compound 3 µM
[25] = second compound 1 µM, first compound 0.00949 µM
[26] = second compound 1 µM, first compound 0.03 µM
[27] = second compound 1 µM, first compound 0.0949 µM
[28] = second compound 1 µM, first compound 0.3 µM
[29] = second compound 1 µM, first compound 0.949 µM
[30] = second compound 1 µM, first compound 3 µM
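For viability, T/C in this document: spheroids exposed to compounds for 7 days.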

IC50 (second compound 0.01 µM): > 10 µM | IC50 (second compound 0.0316 µM): > 10 µM | IC50 (second compound 0.1 µM): > 10 µM | IC50 (second compound 0.316 µM): > 10 µM | IC50 (second compound 1 µM): > 10 µM
Structure (SMILES): C=CC(=O)N1CCN(c2nc(=O)n(-c3c(C)ccnc3C(C)C)c3nc(-c4c(O)cccc4F)c(F)cc23)C(C)C1 (stereo not given) + CNC(C)C(=O)NC1CN(S(=O)(=O)c2cccc(S(=O)(=O)N3CCC4CCC(C(=O)NC(c5ccccc5)c5ccccc5)N4C(=O)C(NC(=O)C(C)NC)C3)c2)CCC2CCC(C(=O)NC(c3ccccc3)c3ccccc3)N2C1=O
viability, T/C (second compound 0.01 µM, first compound 0.0316 µM): 105% | viability, T/C (second compound 0.01 µM, first compound 0.1 µM): 94.4% | viability, T/C (second compound 0.01 µM, first compound 0.316 µM): 84.8% | viability, T/C (second compound 0.01 µM, first compound 1 µM): 96% | viability, T/C (second compound 0.01 µM, first compound 3.16 µM): 95.7% | viability, T/C (second compound 0.01 µM, first compound 10 µM): 85.8% | viability, T/C (second compound 0.0316 µM, first compound 0.0316 µM): 110% | viability, T/C (second compound 0.0316 µM, first compound 0.1 µM): 97.7% | viability, T/C (second compound 0.0316 µM, first compound 0.316 µM): 97.8% | viability, T/C (second compound 0.0316 µM, first compound 1 µM): 85.7% | viability, T/C (second compound 0.0316 µM, first compound 3.16 µM): 85.2% | viability, T/C (second compound 0.0316 µM, first compound 10 µM): 80.3% | viability, T/C (second compound 0.1 µM, first compound 0.0316 µM): 99.2% | viability, T/C (second compound 0.1 µM, first compound 0.1 µM): 92.4% | viability, T/C (second compound 0.1 µM, first compound 0.316 µM): 95.9% | viability, T/C (second compound 0.1 µM, first compound 1 µM): 98.6% | viability, T/C (second compound 0.1 µM, first compound 3.16 µM): 96% | viability, T/C (second compound 0.1 µM, first compound 10 µM): 96.2% | viability, T/C (second compound 0.316 µM, first compound 0.0316 µM): 95.1% | viability, T/C (second compound 0.316 µM, first compound 0.1 µM): 95.3% | viability, T/C (second compound 0.316 µM, first compound 0.316 µM): 103% | viability, T/C (second compound 0.316 µM, first compound 1 µM): 107% | viability, T/C (second compound 0.316 µM, first compound 3.16 µM): 94% | viability, T/C (second compound 0.316 µM, first compound 10 µM): 86.8% | viability, T/C (second compound 1 µM, first compound 0.0316 µM): 110% | viability, T/C (second compound 1 µM, first compound 0.1 µM): 110% | viability, T/C (second compound 1 µM, first compound 0.316 µM): 86% | viability, T/C (second compound 1 µM, first compound 1 µM): 96.6% | viability, T/C (second compound 1 µM, first compound 3.16 µM): 96.2% | viability, T/C (second compound 1 µM, first compound 10 µM): 96.8%

IC50 (second compound 0.01 µM): > 3 µM | IC50 (second compound 0.0316 µM): > 3 µM | IC50 (second compound 0.1 µM): > 3 µM | IC50 (second compound 0.316 µM): > 3 µM | IC50 (second compound 1 µM): > 3 µM
Structure (SMILES): CCN1C(C(=O)NC23CCC(C(=O)O)(CC2)CC3)C(c2cccc(Cl)c2F)C2(C(=O)Nc3cc(Cl)ccc32)C12CCCCC2 (stereo not given) + CNC(C)C(=O)NC1CN(S(=O)(=O)c2cccc(S(=O)(=O)N3CCC4CCC(C(=O)NC(c5ccccc5)c5ccccc5)N4C(=O)C(NC(=O)C(C)NC)C3)c2)CCC2CCC(C(=O)NC(c3ccccc3)c3ccccc3)N2C1=O
viability, T/C [1]: 91% | viability, T/C [2]: 108% | viability, T/C [3]: 117% | viability, T/C [4]: 109% | viability, T/C [5]: 110% | viability, T/C [6]: 138% | viability, T/C [7]: 109% | viability, T/C [8]: 118% | viability, T/C [9]: 104% | viability, T/C [10]: 112% | viability, T/C [11]: 105% | viability, T/C [12]: 138% | viability, T/C [13]: 130% | viability, T/C [14]: 117% | viability, T/C [15]: 104% | viability, T/C [16]: 111% | viability, T/C [17]: 117% | viability, T/C [18]: 132% | viability, T/C [19]: 110% | viability, T/C [20]: 120% | viability, T/C [21]: 91.2% | viability, T/C [22]: 123% | viability, T/C [23]: 99% | viability, T/C [24]: 132% | viability, T/C [25]: 102% | viability, T/C [26]: 110% | viability, T/C [27]: 112% | viability, T/C [28]: 101% | viability, T/C [29]: 121% | viability, T/C [30]: 132%

IC50 (second compound 0.01 µM): > 3 µM | IC50 (second compound 0.0316 µM): > 3 µM | IC50 (second compound 0.1 µM): > 3 µM | IC50 (second compound 0.316 µM): > 3 µM | IC50 (second compound 1 µM): > 3 µM
Structure (SMILES): Cc1nc(N2CCC3(CC2)COC(C)C3N)c(CO)nc1Sc1ccnc(N)c1Cl (stereo not given) + CNC(C)C(=O)NC1CN(S(=O)(=O)c2cccc(S(=O)(=O)N3CCC4CCC(C(=O)NC(c5ccccc5)c5ccccc5)N4C(=O)C(NC(=O)C(C)NC)C3)c2)CCC2CCC(C(=O)NC(c3ccccc3)c3ccccc3)N2C1=O
viability, T/C [1]: 119% | viability, T/C [2]: 132% | viability, T/C [3]: 192% | viability, T/C [4]: 239% | viability, T/C [5]: 205% | viability, T/C [6]: 165% | viability, T/C [7]: 116% | viability, T/C [8]: 163% | viability, T/C [9]: 214% | viability, T/C [10]: 279% | viability, T/C [11]: 211% | viability, T/C [12]: 164% | viability, T/C [13]: 120% | viability, T/C [14]: 147% | viability, T/C [15]: 196% | viability, T/C [16]: 237% | viability, T/C [17]: 175% | viability, T/C [18]: 155% | viability, T/C [19]: 111% | viability, T/C [20]: 140% | viability, T/C [21]: 203% | viability, T/C [22]: 229% | viability, T/C [23]: 181% | viability, T/C [24]: 147% | viability, T/C [25]: 119% | viability, T/C [26]: 148% | viability, T/C [27]: 183% | viability, T/C [28]: 250% | viability, T/C [29]: 171% | viability, T/C [30]: 142%
